Laboratory results: publication PMC9405102, “Targeted Modification and Structure-Activity Study of GL-29, an Analogue of the Antimicrobial Peptide Palustrin-2ISb” (Antibiotics, 2022)
≈ marks a conversion by molar mass, not a printed value. Read-outs that look alike come from different tables or passages of the source. Where a SMILES comes first, the peptide text is derived from it. Where no end group is shown, it is not given here.

How the values were obtained:
[1] = system: Galleria mellonella larvae (waxworms); assay: Toxicity of peptide in larvae in vivo; details: uninfected larvae
Experimental: In this assay, Galleria mellonella larvae (waxworms) (Livefood UK Ltd., Rooks Bridge, UK) were used as an infection model to investigate the antimicrobial potency of peptides against S. aureus, which was described in a previous study in detail (Yuan et al., 2019). The larvae, weights between 225 mg and 275 mg, were selected, and nine larvae were stored in a separate Petri dish as a group and they were divided into several groups. Then, 10 µL of the peptide solution at final concentrations of 8 µM and 16 µM, respectively, and 10 µL of PBS were injected into larvae to test the toxicity of peptides and PBS solution. Afterwards, 10 μL of the bacterial suspension in PBS (5 × 10^7 CFU/mL) were injected into larvae. All the infected larvae were ensured to be alive after 2 h of the injection, followed by the treatment with 10 μL of the peptide solution to reach final concentrations of 2, 4 and 8 μM, respectively. The negative control was treated with the same volume of PBS, and the positive control was dosed with the same volume of 20 mg/kg vancomycin (Sigma-Aldrich, UK). The number of living larvae was counted every 24 h for 5 days, except the first day of 12 h.

[2] = system: U251MG; assay: MTT antiproliferative assay; format: cell-based, human
Experimental: (§1) The proliferative inhibition effect of GL-29 and its analogues were assessed by MTT assay as described in a previous study. HaCaT cell line (human keratinocytes) and four cancer cell lines, U251MG (human glioblastoma astrocytoma cell line), HCT116 (human colon cancer cell line), H157 (human non-small lung cancer cell line) and H838 (human lung carcinoma cancer cell line), were used in this assay. A total of 8000 cells/per well were seeded in the 96-well plate for 24 h and then treated with peptides at the concentration from 100 μM to 100 nM for 24 h. In this assay, 1% Triton X-100 and PBS were set as a positive and negative control, respectively. After which, the formazan was dissolved in DMSO and the OD value was detected by use of a Synergy HT plate reader (BioTek, Minneapolis, MN, USA) at λ = 570 nm.
(§2) Data were analysed using Prism (Version 8.2.1; GraphPad Software, Inc, San Diego, CA, USA). Error bars in the graphs represented standard errors of means (SEM) of nine repeats from three independent tests. The statistical significance was calculated using two-way ANOVA and is indicated as ns (non-significant difference), * (p < 0.05), ** (p < 0.01), *** (p < 0.001), ****(p < 0.0001). The HC10, HC50 and IC50 values were calculated using the online tool AAT Bioquest (https://www.aatbio.com/index.html, accessed on 6 May 2022).

[3] = system: HCT116; assay: MTT antiproliferative assay; format: cell-based, human
Experimental: as §1, §2

[4] = system: H157; assay: MTT antiproliferative assay; format: cell-based, human; details: 24 h
Experimental: as §1, §2

[5] = system: H838; assay: MTT antiproliferative assay; format: cell-based, human
Experimental: as §1, §2

[6] = system: E. faecalis (NCTC 12697); format: cell-based, Enterococcus faecalis
Experimental: The antimicrobial activity of the peptides was determined through the minimum inhibitory concentrations (MICs) and the minimum bactericidal concentration (MBCs) using the broth-dilution method in a 96-well plate, as described in the previous study. Six bacteria, including the Gram-positive bacteria, S. aureus (ATCC CRM 6538), MRSA (ATCC CRM 12493) and E. faecalis (NCTC 12697), the Gram-negative bacteria, E. coli (ATCC CRM 8739), K. pneumoniae (ATCC CRM 43816) and P. aeruginosa (ATCC CRM 9027), the yeast, C. albicans (ATCC CRM 10231) and clinical isolates, S. aureus (B042 V2E1 A), MRSA (B038 V1S1 A), E. coli (ATCC BAA-2340) and K. pneumoniae (ATCC BAA-1705) were used in these assays to evaluate the antimicrobial potency of the two peptides by determining their MICs and MBCs. All bacteria were cultured in MHB and the yeast, C. albicans was cultured in YPD broth overnight. Then, the microorganisms were sub-cultured and diluted to the final concentration of 2 × 10^5 CFU/mL to 5 × 10^5 CFU/mL. The Norfloxacin and amphotericin B were used as positive controls for the bacteria and yeast, respectively. The assay was repeated three times, with five replicates at each time.

[7] = system: horse erythrocytes; format: cell-based; details: red cells of horse, 2 h
Experimental: The haemolysis assays were performed by incubating prewashed erythrocyte suspension obtained from fresh defibrinated horse blood (TCS Biosciences Ltd., Buckingham, UK) with a range of peptides at final concentrations from 512 to 1 μM, for 2 h at 37 °C. The red cell suspensions were washed with phosphate-buffered saline (PBS) until the supernatant was clear and then diluted with PBS to form a 2% cell suspension. Peptides were 2-fold diluted by the 2% cell suspension to reach the final concentration range from 512 to 1 μM. The haemolysis of the cell suspensions with either 1% (v/v) Triton X-100 or PBS, were considered as positive controls and negative controls, respectively. After incubation, the extent of haemolysis was determined by measuring the absorbance of the supernatant from each sample at 570 nm with a Synergy HT plate reader (BioTek, USA).
as §2

[8] = system: human keratinocyte cell line, HaCaT; format: cell-based; details: 24 h
Experimental: as §1, §2

[9] = system: methicillin-resistant S. aureus (MRSA); design: method as in PMID 21911019; details: cited from earlier work
[10] = system: Escherichia coli (E. coli); design: method as in PMID 21911019; details: cited from earlier work
[11] = system: C. albicans; design: method as in PMID 21911019; details: C. albicans; cited from earlier work
[12] = system: Staphylococcus aureus (S. aureus); design: method as in PMID 21911019; details: cited from earlier work

Row | Molecule | toxicity against larvae ([1]; 2 × MIC (20 mg/kg)) | toxicity against larvae ([1]; 4 × MIC (40 mg/kg)) | IC50 ([2]; MTT, 24 h) [µM] | IC50 ([3]; HCT116, MTT, 24 h) [µM] | IC50 [4] [µM] | IC50 ([5]; H838, MTT, 24 h) [µM] | MBC ([6]; NCTC 12697) [µM] | MIC ([6]; NCTC 12697) [µM] | HC10 [7] [µM] | HC50 [7] [µM] | IC50 [8] [µM] | inhibition of proliferative activity ([2]; 100 µM (highest concentration)) | inhibition of proliferative activity ([3]; HCT116, 100 µM (highest concentration)) | inhibition of proliferative activity ([5]; H838, 100 µM (highest concentration)) | MBC ([6]; E. faecalis (NCTC 12697)) [µM] | MIC ([6]; E. faecalis (NCTC 12697)) [µM] | MIC [9] [µM] | MIC [10] [µM] | MIC [11] [µM] | MIC [12] [µM]
1 | GLWNSIKIAGKKLFVNVLDKIR-NH2 [GL-22] | no toxicity | high toxicity | 40.6 | 129 | 9.36 | 25.2 | 32 | 32 | 87.304 | 254.11 | 38.9 | – | – | – | – | – | – | – | – | –
2 | GLWNSIKIA-NH2 [GL-9, GLWNSIKIA-NH2] | – | – | – | – | – | – | – | – | – | – | – | 20–40% | 20–40% | 20–40% | >512 | >512 | – | – | – | –
3 | CC[C@H](C)[C@H](NC(=O)[C@H](CCCCN)NC(=O)[C@@H](NC(=O)[C@H](CO)NC(=O)[C@H](CC(N)=O)NC(=O)[C@H](Cc1c[nH]c2ccccc12)NC(=O)[C@H](CC(C)C)NC(=O)CN)[C@@H](C)CC)C(=O)N[C@@H](C)C(=O)NCC(=O)N[C@@H](CCCCN)C(=O)N[C@@H](CCCCN)C(=O)N[C@@H](CC(C)C)C(=O)N[C@@H](Cc1ccccc1)C(=O)N[C@H](C(=O)N[C@@H](CC(N)=O)C(=O)N[C@H](C(=O)N[C@@H](CC(C)C)C(=O)N[C@@H](CC(=O)O)C(=O)N[C@@H](CCCCN)C(=O)N[C@H](C(=O)N[C@@H](CCCNC(=N)N)C(=O)N[C@H]1CSSC[C@@H](C(=O)O)NC(=O)CNC(=O)CNC(=O)[C@H](C)NC(=O)[C@H](C(C)C)NC(=O)[C@H](CCCCN)NC1=O)[C@@H](C)CC)C(C)C)C(C)C [GL-29] (HELM PEPTIDE1{G.L.W.N.S.I.K.I.A.G.K.K.L.F.V.N.V.L.D.K.I.R.C.K.V.A.G.G.C}$PEPTIDE1,PEPTIDE1,23:R3-29:R3$$$V2.0; N-terminus and C-terminus assumed; bridges inferred) | – | – | – | – | – | – | 32 (≈ 100 µg/mL) | 16 (≈ 50.1 µg/mL) | 5.86 | 33.03 | 5.05 | – | – | – | – | – | 12.5 (≈ 39.1 µg/mL) | 1.6 (≈ 5.01 µg/mL) | 100 (≈ 313 µg/mL) | 6.3 (≈ 19.7 µg/mL)
